Data on 65 molecules can be found in ChEMBL document CHEMBL2094260, “Malaria Box Tuberculosis Screening Data”.

The test system of assay [1] is Mycobacterium tuberculosis. Nature of the assay: MMV: Screen against Mtb, single point, non replicating, at 25uM. Type of assay: functional.
For assay [2], the system named is Mycobacterium tuberculosis. Nature of the assay: MMV: Screen against Mtb, single point, replicating, at 25uM. Type of assay: functional.

A word on the inhibition: it is the relative decrease from the control value, in per cent.

The structures appear in SMILES notation.

Turning to `Cc1ccc(-c2cc3nc4c(c(O)n3n2)CCCC4)cc1`, the values for the inhibition at 25 µM in assay [1] and in assay [2] were 21.5% and 14%, respectively.

Regarding `Cc1ccc(-c2cc(C(=O)Nc3ccc(S(=O)(=O)N4CCCCC4)cc3)[nH]n2)c(O)c1`, the inhibition at 25 µM in assay [1] worked out at 9.41%; in assay [2], 11.4%.

For the molecule `O=c1nc(C=Cc2ccc(Br)cc2)oc2ccccc12`, the inhibition at 25 µM in assay [1] was -13.3%; in assay [2] it was 20.6%.

In the case of `O=C(NNc1cc(N2CCCC2)nc(N2CCCC2)n1)c1ccccc1`, the inhibition at 25 µM in assay [1] came to 30.6%; in assay [2], 12%.

`COc1cc(-c2nc(-c3ccccc3)c(-c3ccccc3)[nH]2)cc(OC)c1O`: the figures for the inhibition at 25 µM in assay [1] and in assay [2] were 18% and 17%, respectively.

For `CCn1c(CN2CCN(Cc3ccccc3)CC2)nc2cc(NC(=O)c3cccs3)ccc21`, the inhibition at 25 µM in assay [1] came out at 15.2%; in assay [2], 12.5%.

Turning to `Cc1cccc(-n2ncc3c(O)nc(-n4nc(C)cc4NC(=O)c4cc5ccccc5o4)nc32)c1`, the inhibition at 25 µM amounted to 48.2% in assay [1] and 48.5% in assay [2].

With `COc1ccc(C(=O)NC(c2ccc(Cl)cc2Cl)c2cc(Cl)c3cccnc3c2O)cc1` (stereo not given), the inhibition at 25 µM in assay [1] is -4.19%; in assay [2] it was 3.06%.

Consider `COc1ccc(CNC(=O)c2cc3c(=O)n4ccccc4nc3n(CCc3ccccc3)c2=N)cc1`, for which the inhibition at 25 µM stood at 6.82% in assay [1] and 20.3% in assay [2].

For `O=C(Nc1ccc(CN2CCOCC2)cc1)c1ccc(-c2cc(Cl)ccc2Cl)o1`, the values for the inhibition at 25 µM in assay [1] and in assay [2] were 14.5% and 17.1%, respectively.

As to `Cc1cc(Nc2ccc(Cl)cc2)n2nc(C(F)(F)F)nc2n1`, the inhibition at 25 µM in assay [1] is 10.3%; in assay [2] it was 9.63%.

Turning to `O=C(Nc1cccc(C2=NCCN2)c1)Nc1cccc(C2=NCCN2)c1` [IMIDOCARB], the inhibition at 25 µM in assay [1] worked out at 11.1%; in assay [2] it was 5.56%.

`COc1cc(OC)cc(N2C(=O)N(Cc3ccc(C(C)(C)C)cc3)c3ccccc3S2(=O)=O)c1`: the inhibition at 25 µM in assay [1] amounted to 13.6%; in assay [2], 2.59%.

Take `CCCC(c1nnnn1C1CCCCC1)N1CCN(C(=O)c2ccco2)CC1` (stereo not given): the values for the inhibition at 25 µM in assay [1] and in assay [2] were 5.57% and 20.4%, respectively.

In the case of `CCOC(=O)c1cnc2ccc(CC)cc2c1O`, the inhibition at 25 µM turned out to be 7.14% in assay [1] and 12.5% in assay [2].

`Cn1c(=O)c2cc(C(=O)NCCCN3CCCCCC3)sc2c2ccccc21`: the inhibition at 25 µM turned out to be 14.6% in assay [1] and 19.5% in assay [2].

As for `CN(C)c1ccc(-c2nc3cc(N)ccc3[nH]2)cc1`, the inhibition at 25 µM was 16.4% in assay [1] and -1% in assay [2].

Turning to `Cn1c(C(=O)c2cccc3ccccc23)nc2ccccc21`, the inhibition at 25 µM in assay [1] stood at 31.5%; in assay [2], 4.31%.

As for `CN1CCN(c2c3c(c(C#N)c4nc5ccccc5n24)CCC3)CC1`, the results for the inhibition at 25 µM in assay [1] and in assay [2] were 4.53% and 7.2%, respectively.

For `Cc1cc(C)c2c(c1)OCN(Cc1ccccc1Cl)C2`, the inhibition at 25 µM in assay [1] stood at 12%; in assay [2], 9.78%.

For `O=C(CCc1ccccc1)c1ccccc1OCC(O)CN1CCCCC1` (stereo not given), the inhibition at 25 µM in assay [1] was 0.25%; in assay [2] it was 12.9%.

As to `OC1=C2C(=Nc3ccccc3SC2c2ccccc2)c2ccccc21` (stereo not given), the inhibition at 25 µM in assay [1] was found to be 14.1%; in assay [2], 8.39%.

`O=C(Nc1ccc(-c2nc3ccccc3[nH]2)cc1)c1ccc(Cl)c(Cl)c1`: the inhibition at 25 µM in assay [1] was 26.5%; in assay [2], 9.8%.

As for `CCn1c2c(c(=N)c3c1CCC3)CCCC2`, the results for the inhibition at 25 µM in assay [1] and in assay [2] were 8.24% and 10.1%, respectively.

For the molecule `CN(N=O)C1=C(NC2CCCCC2)C(=O)c2ccccc2C1=O`, the inhibition at 25 µM in assay [1] is 7.53%; in assay [2], -2.12%.

In the case of `O=C(Nc1ccc(N2CCN(Cc3ccccc3)CC2)cc1)c1cccs1`, the inhibition at 25 µM in assay [1] stood at 6.45%; in assay [2], 11%.

`O=C(O)C1Cc2c([nH]c3ccccc23)C(c2ccc(Cl)cc2Cl)N1` (stereo not given): the values for the inhibition at 25 µM in assay [1] and in assay [2] were 8.72% and 13.7%, respectively.

Regarding `COCCN(C(=O)Cc1cccs1)C(C(=O)NCc1ccc(OC)cc1)c1ccc(C(C)C)cc1` (stereo not given), the figures for the inhibition at 25 µM in assay [1] and in assay [2] were 31.4% and 10.2%, respectively.

Turning to `CN1CCN(c2ncnc3c2[nH]c2ccc(Cl)cc23)CC1`, the inhibition at 25 µM amounted to 1.91% in assay [1] and 23.9% in assay [2].

On to `CCC(O)c1ccc(Br)cc1NC(=O)c1cccc(Cl)c1` (stereo not given), for which the inhibition at 25 µM is 14.6% in assay [1] and 13.9% in assay [2].

Regarding `CCOc1ccc(-c2nonc2NC(=O)c2cccc(C)c2)cc1OCC`, the inhibition at 25 µM in assay [1] came to 9.24%; in assay [2], 2.34%.

In the case of `CCN(CC)c1cc(C)c2cc(NC(=O)c3cccc(OC)c3)ccc2n1`, the results for the inhibition at 25 µM in assay [1] and in assay [2] were 19.7% and 18.7%, respectively.

For the molecule `OC1=C2C(=Nc3ccccc3SC2c2ccc(Br)cc2)c2ccccc21` (stereo not given), the results for the inhibition at 25 µM in assay [1] and in assay [2] were 0.604% and -4.78%, respectively.

Turning to `Cc1ccc(S(=O)(=O)c2c(COC(=O)c3cccc(C)c3)c(-c3ccccc3)nn2C)cc1`, the inhibition at 25 µM in assay [1] was 8.24%; in assay [2] it was 9.01%.

For the molecule `CCCCCCc1cc(O)c2c3c(c(=O)oc2c1)CCC(C)C3` (stereo not given), the inhibition at 25 µM in assay [1] worked out at 11.4%; in assay [2] it was 12.8%.

As to `O=C(Nc1ccc(Cl)cc1C(=O)Nc1ccncc1)c1ccc(Cl)cc1Cl`, the values for the inhibition at 25 µM in assay [1] and in assay [2] were 27.7% and 30%, respectively.

For the molecule `CCOc1cc(CNC(C)C(O)c2ccccc2)cc(Cl)c1OCC` (stereo not given), the inhibition at 25 µM in assay [1] was 9.76%; in assay [2] it was 18.6%.

As for `O=C(Cc1ccccc1)NC(c1ccc(Cl)cc1)c1c(O)ccc2ccccc12` (stereo not given), the results for the inhibition at 25 µM in assay [1] and in assay [2] were -0.46% and 12%, respectively.

On to `CC(C)(C)c1ccc(O)c(CNC2CCCCC2)c1`, for which the inhibition at 25 µM is 16.6% in assay [1] and 38.8% in assay [2].

As to `CCOC(=O)C1=C(C)N=c2sc(=Cc3cc(Cl)ccc3O)c(=O)n2C1c1ccc(OC)cc1` (stereo not given), the inhibition at 25 µM in assay [1] is 13.4%; in assay [2], -0.235%.

Take `C=C(C)CCC(C)N1CCC(N2CCC(C(=O)NCCc3ccccc3)CC2)CC1` (stereo not given): the results for the inhibition at 25 µM in assay [1] and in assay [2] were 15.2% and -4.8%, respectively.

Consider `CCCCC(O)(c1ccc(Cl)cc1)C(CN1CCOCC1)c1ccc(Cl)cc1` (stereo not given), for which the inhibition at 25 µM in assay [1] was 15.2%; in assay [2], 17.3%.

For `Cc1ccc(N2C(=O)C3C(C2=O)C2(c4ccccc4)C(=O)C3(c3ccccc3)C(c3ccccc3)=C2c2ccccc2)cc1` (stereo not given), the inhibition at 25 µM in assay [1] was determined as 4.88%; in assay [2], 9.93%.

Turning to `CCOc1cccc2sc(N(Cc3cccnc3)C(=O)C3CCCCC3)nc12`, the figures for the inhibition at 25 µM in assay [1] and in assay [2] were 14.3% and 13.9%, respectively.

As to `COC(=O)c1ccc(Cl)c2c1C1C=CCC1C(c1cccc3ccccc13)N2` (stereo not given), the inhibition at 25 µM in assay [1] was -4.9%; in assay [2], 12.1%.

As for `COc1ccc(Br)cc1C1Nc2ccc3ccccc3c2C2=C1C(=O)CC(c1ccccc1)C2` (stereo not given), the inhibition at 25 µM in assay [1] was 20.9%; in assay [2] it was 16.2%.

Take `Cc1ccc(C2CC(C(F)(F)F)n3nc(C(=O)N4CCN(C(c5ccccc5)c5ccccc5)CC4)cc3N2)cc1` (stereo not given): the inhibition at 25 µM was found to be 10.5% in assay [1] and 14.3% in assay [2].

Turning to `O=C(NC1CCCCC1)C(c1cccs1)N(CCc1ccccc1)C(=O)c1ccco1` (stereo not given), the values for the inhibition at 25 µM in assay [1] and in assay [2] were 2.2% and 22.2%, respectively.

Consider `COc1cccc(C=Cc2nc(=O)c3ccccc3o2)c1OC`, for which the inhibition at 25 µM stood at 11.5% in assay [1] and 40.6% in assay [2].

For the molecule `CC(C)(C)c1ccc(C(=O)Nc2nc3ccccc3s2)cc1`, the inhibition at 25 µM in assay [1] was -0.011%; in assay [2], 54%.

With `CCOc1cc(Cl)c(C(C)NC(=O)c2cccc(OC)c2)cc1OCC` (stereo not given), the results for the inhibition at 25 µM in assay [1] and in assay [2] were 9.94% and 1.28%, respectively.

Regarding `CC(O)(c1ccc(Cl)cc1)C(CN1CCCCC1)c1ccccc1` (stereo not given), the inhibition at 25 µM in assay [1] came out at 11.2%; in assay [2], 8.72%.

For the molecule `COc1ccc(N2CCN(C(CNC(=O)C3CCCCC3)c3ccc4c(c3)OCO4)CC2)cc1` (stereo not given), the results for the inhibition at 25 µM in assay [1] and in assay [2] were 0.862% and -3.89%, respectively.

`CCN(CC)CCCNc1ccnc2cc3ccccc3cc12`: the inhibition at 25 µM in assay [1] worked out at 14.6%; in assay [2], 8.7%.

Turning to `CCOc1cc2c(cc1OCC)C(c1cc(OC)c(O)cc1Cl)NCC2` (stereo not given), the inhibition at 25 µM in assay [1] came out at 13.6%; in assay [2], 23.3%.

As to `C=CC12CCN(CC1)C(C(O)c1ccnc3ccc(OC)cc13)C2` (stereo not given), the inhibition at 25 µM in assay [1] amounted to 18.8%; in assay [2], 27.2%.

As for `COc1ccc(C2N(C)c3ccccc3N2C)cc1`, the inhibition at 25 µM was -0.36% in assay [1] and -1.76% in assay [2].

In the case of `COc1ccc(C(C)=O)cc1N1C(=O)C2C(C1=O)C1(c3ccccc3)C(=O)C2(c2ccccc2)C(c2ccc(C)cc2)=C1c1ccc(C)cc1` (stereo not given), the inhibition at 25 µM in assay [1] was found to be 28.1%; in assay [2], 22.4%.

Regarding `COc1ccc(-c2cc3c(SCC(=O)Nc4cc(C(F)(F)F)ccc4Cl)nccn3n2)cc1`, the inhibition at 25 µM in assay [1] worked out at 15%; in assay [2], 10.2%.

Consider `CCC(C)NCC(O)(c1ccc(Cl)cc1)c1ccc(Cl)cc1` (stereo not given), for which the inhibition at 25 µM in assay [1] came to 10.6%; in assay [2], 17.4%.

Turning to `COc1ccc(C=C2SC(=N)N(c3ccccc3OC)C2=O)cc1`, the figures for the inhibition at 25 µM in assay [1] and in assay [2] were 6.97% and 24.5%, respectively.

As for `COc1ccc2c(c1)OC(O)(C(F)(F)C(F)(F)F)CC2=O` (stereo not given), the inhibition at 25 µM in assay [1] turned out to be 20.1%; in assay [2], 23.4%.

With `O=C(Nc1ccc(Cl)cc1)N1CCN(c2ccc3nncn3n2)CC1`, the inhibition at 25 µM was -3.33% in assay [1] and 12.8% in assay [2].

Regarding `COc1ccc(-c2c(C)nn3c(N)c(C#N)cnc23)cc1OC`, the values for the inhibition at 25 µM in assay [1] and in assay [2] were 11.5% and 5.83%, respectively.

Take `CCOc1ccccc1NC(=O)CN1CCN(C(=O)c2ccco2)CC1`: the inhibition at 25 µM in assay [1] is -0.186%; in assay [2] it was 23.1%.
